Test results: US6737383B1, “Herbicidal oxadiazolidines” (priority 1999, dated 2004)

Tests used:
bedstraw = experiment: Test B pre/postemergence bedstraw; type: in vivo, Galium aparine
How it was run: (§1)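 Response is a visual 0-to-10 score relative to untreated plants, where 0 means no effect and 10 means complete control, taken twelve to sixteen days after application. Treatments went onto soil at planting and onto foliage of 1- to 4-leaf plants, using a surfactant-containing non-phytotoxic solvent.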

wheat = experiment: Test B pre/postemergence wheat; type: in vivo, Triticum aestivum
How it was run: as §1

velvetleaf = experiment: Test B pre/postemergence velvetleaf; type: in vivo, Abutilon theophrasti
How it was run: as §1

crabgrass = experiment: Test B pre/postemergence crabgrass; type: in vivo, Digitaria sanguinalis
How it was run: as §1

duck salad = experiment: Test B flood test duck salad; type: in vivo, Heteranthera limosa
How it was run: (§2)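 Read-out is a visual response score from 0 (no effect) to 10 (complete control), assigned by comparison with untreated controls. Treatment was applied at the 2-leaf stage, and plants stayed in the greenhouse for twelve to sixteen days before scoring.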

surinam grass = experiment: Test B pre/postemergence surinam grass; type: in vivo, Brachiaria decumbens
How it was run: as §1

giant foxtail = experiment: Test B pre/postemergence giant foxtail; type: in vivo, Setaria faberii
How it was run: as §1

purple nutsedge = experiment: Test B pre/postemergence purple nutsedge; type: in vivo, Cyperus rotundus
How it was run: as §1

rice = experiment: Test B flood test rice; type: in vivo, Oryza sativa
How it was run: as §2

soybean = experiment: Test B pre/postemergence soybean; type: in vivo, Glycine max
How it was run: as §1

wild oat = experiment: Test B pre/postemergence wild oat; type: in vivo, Avena fatua
How it was run: as §1

blackgrass = experiment: Test B pre/postemergence blackgrass; type: in vivo, Alopecurus myosuroides
How it was run: as §1

smallflower flatsedge = experiment: Test B flood test smallflower flatsedge; type: in vivo, Cyperus difformis
How it was run: as §2

corn = experiment: Test B pre/postemergence corn; type: in vivo, Zea mays
How it was run: as §1

morningglory = experiment: Test B pre/postemergence morningglory; type: in vivo, Ipomoea hederacea
How it was run: as §1

rape = experiment: Test B pre/postemergence rape; type: in vivo, Brassica napus
How it was run: as §1

[1] = Postemergence, Rate 62 g/ha, scale 0 to 10, 0 is no effect, 10 is complete control
[2] = Postemergence, Rate 250 g/ha, scale 0 to 10, 0 no effect, 10 complete control
[3] = Preemergence, Rate 62 g/ha, scale 0 to 10, 0 is no effect, 10 is complete control
[4] = Preemergence, Rate 125 g/ha, scale 0 to 10 (0 no effect, 10 complete control)
[5] = Preemergence, Rate 250 g/ha, scale of 0 to 10 where 0 is no effect and 10 is complete control
[6] = Preemergence, Rate 500 g/ha, scale 0 (no effect) to 10 (complete control)
[7] = Rate 125 g/ha, Postemergence, scale 0 to 10, 0 no effect, 10 complete control
[8] = Rate 500 g/ha, Postemergence, 0 to 10 scale (0 no effect, 10 complete control)
[9] = Rate 125 g/ha, Postemergence section (flood test species), scale 0 to 10, 0 no effect, 10 complete control
[10] = Rate 500 g/ha, Postemergence section of Table B, 0 to 10 scale (0 no effect, 10 complete control)
[11] = flood test, listed under Postemergence, Rate 250 g/ha, scale 0 to 10, 0 no effect, 10 complete control

Cc1ccc(-n2c(=O)on(C(=O)N(c3ccc(F)cc3F)C(C)C)c2=O)c(C)c1 [Compound 24]
8: Bedstraw plant response rating (bedstraw; [2]) | Bedstraw plant response rating (bedstraw; [8]) | Crabgrass plant response rating (crabgrass; [7]) | Giant foxtail plant response rating (giant foxtail; [8])
3: Bedstraw plant response rating (bedstraw; [7]) | B. signalgrass plant response rating (surinam grass; [2]) | B. signalgrass plant response rating (surinam grass; [7]) | B. signalgrass plant response rating (surinam grass; [8]) | Giant foxtail plant response rating (giant foxtail; [2]) | Soybean plant response rating (soybean; [1]) | Soybean plant response rating (soybean; [2]) | Soybean plant response rating (soybean; [7]) | Blackgrass plant response rating (blackgrass; [2])
4: Plant response rating, B. signalgrass (surinam grass; [4]) | Plant response rating, B. signalgrass (surinam grass; [5]) | Plant response rating, Blackgrass (blackgrass; [5]) | Blackgrass plant response rating (blackgrass; [6])
1: Plant response rating, Blackgrass (blackgrass; [4]) | Blackgrass plant response rating (blackgrass; [7]) | Rape plant response rating (rape; [6])
6: Plant response rating, Crabgrass (crabgrass; [4]) | B. signalgrass plant response rating (surinam grass; [6]) | Plant response rating, Giant foxtail (giant foxtail; [3]) | Blackgrass plant response rating (blackgrass; [8])
0: Plant response rating, Bedstraw (bedstraw; [3]) | Plant response rating, Bedstraw (bedstraw; [4]) | Plant response rating, Bedstraw (bedstraw; [5]) | Bedstraw plant response rating (bedstraw; [6]) | Wheat plant response rating (wheat; [1]) | Wheat plant response rating (wheat; [2]) | Plant response rating, Wheat (wheat; [3]) | Plant response rating, Wheat (wheat; [4]) | Plant response rating, Wheat (wheat; [5]) | Wheat plant response rating (wheat; [6]) | Wheat plant response rating (wheat; [7]) | Velvetleaf plant response rating (velvetleaf; [1]) | Velvetleaf plant response rating (velvetleaf; [2]) | Plant response rating, Velvetleaf (velvetleaf; [3]) | Plant response rating, Velvetleaf (velvetleaf; [4]) | Plant response rating, Velvetleaf (velvetleaf; [5]) | Velvetleaf plant response rating (velvetleaf; [6]) | Velvetleaf plant response rating (velvetleaf; [7]) | Plant response rating, Crabgrass (crabgrass; [3]) | Ducksalad plant response rating (duck salad; [1]) | Ducksalad plant response rating (duck salad; [9]) | Ducksalad plant response rating (duck salad; [10]) | Ducksalad plant response rating (duck salad; [11]) | B. signalgrass plant response rating (surinam grass; [1]) | Plant response rating, B. signalgrass (surinam grass; [3]) | Giant foxtail plant response rating (giant foxtail; [1]) | Nutsedge plant response rating (purple nutsedge; [1]) | Nutsedge plant response rating (purple nutsedge; [2]) | Plant response rating, Nutsedge (purple nutsedge; [3]) | Plant response rating, Nutsedge (purple nutsedge; [4]) | Plant response rating, Nutsedge (purple nutsedge; [5]) | Nutsedge plant response rating (purple nutsedge; [6]) | Nutsedge plant response rating (purple nutsedge; [7]) | Nutsedge plant response rating (purple nutsedge; [8]) | Rice plant response rating (rice; [1]) | Rice plant response rating (rice; [9]) | Rice plant response rating (rice; [10]) | Rice plant response rating (rice; [11]) | Plant response rating, Soybean (soybean; [3]) | Plant response rating, Soybean (soybean; [4]) | Plant response rating, Soybean (soybean; [5]) | Wild oats plant response rating (wild oat; [1]) | Wild oats plant response rating (wild oat; [2]) | Plant response rating, Wild oats (wild oat; [4]) | Plant response rating, Wild oats (wild oat; [5]) | Wild oats plant response rating (wild oat; [7]) | Blackgrass plant response rating (blackgrass; [1]) | Plant response rating, Blackgrass (blackgrass; [3]) | S. Flatsedge plant response rating (smallflower flatsedge; [1]) | S. Flatsedge plant response rating (smallflower flatsedge; [9]) | S. Flatsedge plant response rating (smallflower flatsedge; [11]) | Corn plant response rating (corn; [1]) | Corn plant response rating (corn; [2]) | Plant response rating, Corn (corn; [3]) | Plant response rating, Corn (corn; [4]) | Plant response rating, Corn (corn; [5]) | Corn plant response rating (corn; [6]) | Corn plant response rating (corn; [7]) | Corn plant response rating (corn; [8]) | Plant response rating, Morningglory (morningglory; [3]) | Plant response rating, Morningglory (morningglory; [4]) | Plant response rating, Morningglory (morningglory; [5]) | Morningglory plant response rating (morningglory; [6]) | Rape plant response rating (rape; [1]) | Rape plant response rating (rape; [2]) | Plant response rating, Rape (rape; [3]) | Plant response rating, Rape (rape; [4]) | Plant response rating, Rape (rape; [5]) | Rape plant response rating (rape; [7])
10: Crabgrass plant response rating (crabgrass; [6]) | Crabgrass plant response rating (crabgrass; [8]) | Morningglory plant response rating (morningglory; [2])
7: Plant response rating, Giant foxtail (giant foxtail; [4])
2: Bedstraw plant response rating (bedstraw; [1]) | Crabgrass plant response rating (crabgrass; [1]) | Giant foxtail plant response rating (giant foxtail; [7]) | Soybean plant response rating (soybean; [6]) | Wild oats plant response rating (wild oat; [6]) | Rape plant response rating (rape; [8])
9: Crabgrass plant response rating (crabgrass; [2]) | Plant response rating, Crabgrass (crabgrass; [5]) | Plant response rating, Giant foxtail (giant foxtail; [5]) | Giant foxtail plant response rating (giant foxtail; [6]) | Morningglory plant response rating (morningglory; [1]) | Morningglory plant response rating (morningglory; [7])
